Test system: subjects with severe persistent asthma treated with oral corticosteroids
Test: Phase 3 study AB07015: masitinib 6 mg/kg/day versus placebo, severe asthma exacerbations by baseline blood eosinophil cohort
Type: in vivo, human
Details: for Rate ratio (Estimate) for asthma exacerbations: Poisson regression
Experimental: A prospective, multicenter, randomized, double-blind, placebo-controlled, 2-parallel groups, phase 3 study was carried out to compare the efficacy and the safety of masitinib at 6 mg/kg/day versus placebo in the treatment of subjects with severe persistent asthma treated with oral corticosteroids. Said clinical trial (reference AB07015) is registered under the EudraCT number: 2010-020803-63 and under the ClinicalTrials.gov identifier: NCT01449162. Patients were randomized in two groups with a masitinib to placebo randomization ratio of 2:1, respectively: • Group 1: patients receiving masitinib at 6 mg/kg/day; • Group 2: patients receiving placebo. […] According to the statistical analysis plan of study AB07015 (version 1.0 dated 18 Oct. 2019), the overall assessable population was defined as: ‘all patients in full analysis set (FAS) with severe asthma already treated with oral corticosteroids at a minimal daily dose of greater than 5 mg prednisone or equivalent for at least 3 months prior to screening.’ Subgroup analyses were performed with cohort categorization of severe asthma patients according to eosinophil blood count at baseline. The primary efficacy endpoint was defined as the severe asthma exacerbation rate adjusted on the available person-time (time to end of treatment) on full exposure (main period+extension/weaning period). The rate of severe asthma exacerbations was analyzed by applying a Poisson regression (log-link function and Poisson distribution) model. Because eosinophilic inflammation is correlated with asthma severity, it was of interest to perform subgroup analyses according to blood eosinophil levels. Table 2 below presents the results regarding masitinib treatment effect with respect to placebo (rate ratio for asthma exacerbations requiring steroid therapy) in various blood eosinophil level-defined cohorts, and their complement cohorts (according to the primary efficacy analysis population). The rate of asthma exacerbations is analyzed using Poisson regression with treatment group (masitinib, placebo) as the primary variable (covariate) of interest.

[1] = masitinib 6 mg/kg/day oral, blood eosinophils equal to or higher than 150 cells/μL (M: 181)
[2] = masitinib 6 mg/kg/day oral, blood eosinophils equal to or lower than 300 cells/μL (M: 145)
[3] = masitinib 6 mg/kg/day oral, blood eosinophils higher than 300 cells/μL (M: 95)
[4] = masitinib 6 mg/kg/day oral, blood eosinophils lower than 150 cells/μL (M: 59)
[5] = masitinib 6 mg/kg/day oral, blood eosinophils ranging from 150 to 300 cells/μL (M: 86)
[6] = masitinib vs placebo, blood eosinophils equal to or higher than 150 cells/μL
[7] = masitinib vs placebo, blood eosinophils equal to or lower than 300 cells/μL
[8] = masitinib vs placebo, blood eosinophils higher than 300 cells/μL
[9] = masitinib vs placebo, blood eosinophils lower than 150 cells/μL
[10] = masitinib vs placebo, blood eosinophils ranging from 150 to 300 cells/μL
[11] = masitinib vs placebo, blood eosinophils equal to or higher than 300 cells/μL

Cc1ccc(NC(=O)c2ccc(CN3CCN(C)CC3)cc2)cc1Nc1nc(-c2cccnc2)cs1 [Masitinib, 4-(4-methylpiperazin-1-ylmethyl)-N-[4-methyl-3-(4-pyridin-3ylthiazol-2-ylamino)phenyl]benzamide]
Yearly Exacerbation Rate (masitinib 6 mg/kg/day oral, blood eosinophils equal to or higher than 150 cells/μL): 0.34 severe exacerbations per year
Number of Severe Exacerbations [1]: 67
n: number of subjects who experienced severe exacerbation [1]: (n = 39)
exacerbation rate (masitinib 6 mg/kg/day oral, blood eosinophils equal to or higher than 300 cells/μL (95 patients)): 0.29 severe exacerbations per year
Yearly Exacerbation Rate (masitinib 6 mg/kg/day oral, blood eosinophils equal to or lower than 300 cells/μL): 0.37
Number of Severe Exacerbations [2]: 65
n: number of subjects who experienced severe exacerbation [2]: (n = 35)
Yearly Exacerbation Rate (masitinib 6 mg/kg/day oral, blood eosinophils higher than 300 cells/μL): 0.29
Number of Severe Exacerbations [3]: 29
n: number of subjects who experienced severe exacerbation [3]: (n = 19)
Yearly Exacerbation Rate (masitinib 6 mg/kg/day oral, blood eosinophils lower than 150 cells/μL): 0.36 severe exacerbations per year
Number of Severe Exacerbations [4]: 27
n: number of subjects who experienced severe exacerbation [4]: (n = 15)
Yearly Exacerbation Rate (masitinib 6 mg/kg/day oral, blood eosinophils ranging from 150 to 300 cells/μL): 0.38 severe exacerbations per year
Number of Severe Exacerbations [5]: 38
n: number of subjects who experienced severe exacerbation [5]: (n = 20)
Rate ratio (Estimate) for asthma exacerbations [6]: 0.66
Rate ratio (Estimate) for asthma exacerbations [7]: 0.81
Rate ratio (Estimate) for asthma exacerbations [8]: 0.59
Rate ratio (Estimate) for asthma exacerbations [9]: 0.97
Rate ratio (Estimate) for asthma exacerbations [10]: 0.72
Reduction in Severe Exacerbation [6]: 34%
Reduction in Severe Exacerbation (masitinib vs placebo, blood eosinophils equal to or higher than 150 cells/μL, listed as masitinib): 33%
rate ratio for asthma exacerbations [11]: 0.59
reduction (improvement) in severe exacerbation [11]: 41%
Reduction in Severe Exacerbation [7]: 19%
Reduction in Severe Exacerbation [8]: 41%
Reduction in Severe Exacerbation [9]: 3%
difference in exacerbation rate versus placebo [9]: no discernable difference
Reduction in Severe Exacerbation (masitinib vs placebo, blood eosinophils lower than 150 cells/μL, listed as masitinib): 3%
Reduction in Severe Exacerbation [10]: 28%
Reduction in Severe Exacerbation (masitinib vs placebo, blood eosinophils ranging from 150 to 300 cells/μL, listed as masitinib): 28%
